Measurements as given in patent US12173018B2, “Penicillin-binding protein inhibitors” (priority 2018, dated 2024).
In brackets after ≈: the same amount, converted by molar mass. Read-outs that look alike come from different tables or passages of the source.

Assays:
[1] = biological target: E. coli PBP3 (Escherichia coli (strain K12), UniProt P0AD68); test: E. coli PBP3 Bocillin-FL fluorescence polarization competition binding assay
Summary of the method: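 Steps: purified PBP (1.5 μM final) mixed with compound (0–1000 μM) in 50 mM Hepes pH 8.0, 300 mM NaCl, 5% glycerol; Bocillin-FL added to 0.1 μM; FP (ex 490, em 520 nm) followed for 60 min. Concentration reducing Bocillin-FL binding reported as EC50.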

[2] = biological target: E. coli PBP1b (Escherichia coli (strain K12), UniProt P02919); test: Radioligand competition binding assay with 14C-labeled boronic acid probe, PBP1b
Source text: To determine the ability of boronic acid-based test PBP inhibitors to bind Penicillin Binding Proteins (PBPs), a radio-labelled boronic acid PBP inhibitor
[drawing 751] was used in competition binding assays to determine boronic acid PBP inhibitor binding to PBP1a or PBP1b from Escherichia coli. PBP1a and PBP1b were purified as described previously (Bertsche, U.; et al., J. Biol. Chem. 2005, 280 (45), 38096-38101; Born, P.; et al., J. Biol. Chem. 2006. 281 (37), 26985-26993). To establish assay conditions for competition binding, an enzyme titration/saturation binding experiment was performed. Saturation binding was performed in a buffer comprised of 20 mM Tris (pH 7.5), 500 mM NaCl and 0.1% (v/v) TritonX-100, with PBP1a/PBP1b at a final concentration of 0.1 μM and Compound A at final concentrations ranging from 0-100 μM. Mixtures were incubated for 60 minutes, then applied to Zeba Spin Desalting columns or plates (ThermoFisher Scientific) and centrifuged at 1000-1500×g for 2 minutes. The flow through, containing PBP bound with Compound A, was recovered and 100 μL mixed with 5 mL of UltimaGold liquid scintillation cocktail (Perkin Elmer), and the radioactivity counted using a Beckman Coulter LS 6500 Multipurpose scintillation counter. PBP binding of Compound A approached saturation at 20 μM of ^14C-labeled probe. The competition binding assay was validated using the beta-lactam ampicillin, with Compound A at a final concentration of 20 μM, PBP1a/PBP1b at a final concentration of 0.1 μM. PBP1a/PBP1b was incubated with ampicillin in a 96-well microplate for 60 minutes, then Compound A was added and the mixtures incubated for an additional 60 minutes. The mixtures were then applied to Zeba Spin desalting plates and centrifuged at 1000×g for 2 minutes. The flow through was recovered and 100 μl mixed with 5 ml of UltimaGold liquid scintillation cocktail and the radioactivity counted. […] Binding assays with boronic acid PBP inhibitors were performed in an identical fashion. The potency of boronic acid PBP inhibitors was reported as the EC50 value.

[3] = tested on: engineered strain of Escherichia coli harboring CTX-M15; test: microbe, parasite or virus in culture; type: cell-based; settings: Escherichia coli, read-out: Microbiological Activity (MIC in mg/L), E. coli DH5α/pLBII-CTX-M15, engineered strain producing CTX-M15
[4] = fluorescence polarization competition binding with Bocillin-FL, read-out: E. coli K12 PBP3 Potency

Sequence of E. coli PBP1b (P02919 whole entry): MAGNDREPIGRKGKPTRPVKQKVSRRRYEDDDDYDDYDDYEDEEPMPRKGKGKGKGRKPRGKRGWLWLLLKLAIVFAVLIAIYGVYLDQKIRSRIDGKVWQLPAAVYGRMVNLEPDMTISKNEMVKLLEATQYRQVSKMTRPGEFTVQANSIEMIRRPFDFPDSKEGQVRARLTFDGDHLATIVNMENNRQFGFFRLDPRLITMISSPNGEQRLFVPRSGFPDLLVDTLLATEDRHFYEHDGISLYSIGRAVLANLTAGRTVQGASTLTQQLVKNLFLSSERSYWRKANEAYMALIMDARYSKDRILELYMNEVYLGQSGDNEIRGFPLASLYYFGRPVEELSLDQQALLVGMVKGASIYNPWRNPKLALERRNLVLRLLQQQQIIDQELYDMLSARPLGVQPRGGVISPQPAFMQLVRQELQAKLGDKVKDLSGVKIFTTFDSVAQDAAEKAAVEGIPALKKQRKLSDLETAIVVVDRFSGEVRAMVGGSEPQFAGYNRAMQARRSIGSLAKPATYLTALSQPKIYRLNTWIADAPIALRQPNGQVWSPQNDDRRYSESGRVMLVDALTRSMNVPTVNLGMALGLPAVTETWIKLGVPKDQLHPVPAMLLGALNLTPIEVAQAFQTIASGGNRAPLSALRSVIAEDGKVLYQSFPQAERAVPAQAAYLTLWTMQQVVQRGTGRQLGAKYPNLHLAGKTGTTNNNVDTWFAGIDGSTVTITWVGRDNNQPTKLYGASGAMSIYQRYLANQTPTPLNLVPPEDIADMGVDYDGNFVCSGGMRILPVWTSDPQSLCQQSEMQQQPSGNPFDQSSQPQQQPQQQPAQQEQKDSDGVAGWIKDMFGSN
Sequence of E. coli PBP3 (P0AD68 whole entry): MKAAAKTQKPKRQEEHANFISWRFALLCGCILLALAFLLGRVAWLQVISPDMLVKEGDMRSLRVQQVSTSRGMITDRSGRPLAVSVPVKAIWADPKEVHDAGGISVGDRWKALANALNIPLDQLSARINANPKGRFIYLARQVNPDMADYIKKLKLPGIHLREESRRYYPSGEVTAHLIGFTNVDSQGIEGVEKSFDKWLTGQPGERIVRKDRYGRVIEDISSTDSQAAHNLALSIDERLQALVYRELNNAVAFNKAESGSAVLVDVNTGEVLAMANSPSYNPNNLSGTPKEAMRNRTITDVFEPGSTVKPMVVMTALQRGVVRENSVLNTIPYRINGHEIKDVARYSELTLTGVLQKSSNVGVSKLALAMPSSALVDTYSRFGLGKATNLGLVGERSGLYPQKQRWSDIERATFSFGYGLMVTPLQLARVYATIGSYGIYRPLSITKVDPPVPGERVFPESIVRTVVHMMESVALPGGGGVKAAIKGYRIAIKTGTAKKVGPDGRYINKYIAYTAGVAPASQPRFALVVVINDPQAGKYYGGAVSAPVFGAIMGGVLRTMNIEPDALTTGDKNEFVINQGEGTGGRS

Molecule CCN1CCN(C(=O)NC(C(=O)N[C@H]2Cc3cccc(C(=O)O)c3OB2O)c2ccc(N)cn2)C(=O)C1=O (stereo partly drawn) [Example 132, (3R)-3-(2-(5-aminopyridin-2-yl)-2-(4-ethyl-2,3-dioxopiperazine-1-carboxamido)acetamido)-2-hydroxy-3,4-dihydro-2H-benzo[e][1,2]oxaborinine-8-carboxylic acid] has an EC50 [1, 4] of under 30 µM and an EC50 [2] of 10 to 100 µM.
Work on CCN1CCN(C(=O)NC(C(=O)N[C@H]2Cc3cccc(C(=O)O)c3OB2O)c2ccc(S(C)(=O)=O)cc2)C(=O)C1=O (stereo partly drawn) [Example 118, (3R)-3-(2-(4-ethyl-2,3-dioxopiperazine-1-carboxamido)-2-(4-(methylsulfonyl)phenyl)acetamido)-2-hydroxy-3,4-dihydro-2H-benzo[e][1,2]oxaborinine-8-carboxylic acid] yielded an EC50 [1, 4] of under 30 µM, an MIC [3] of 128 to 256 mg/L (≈ 218 to 437 µM) and an EC50 [2] of over 100 µM.
With CCN1CCN(C(=O)NC(C(=O)N[C@H]2Cc3cccc(C(=O)O)c3OB2O)c2cnn(C)c2)C(=O)C1=O (stereo partly drawn) [Example 60, (3R)-3-(2-(4-ethyl-2,3-dioxopiperazine-1-carboxamido)-2-(1-methyl-1H-pyrazol-4-yl)acetamido)-2-hydroxy-3,4-dihydro-2H-benzo[e][1,2]oxaborinine-8-carboxylic acid] the EC50 [1] was 30 to 500 µM, the MIC [3] was 32 to 64 mg/L (≈ 62.5 to 125 µM) and the EC50 [2] was 10 to 100 µM.
CCN1CCN(C(=O)NC(C(=O)N[C@H]2Cc3cccc(C(=O)O)c3OB2O)c2ccc(OCCO)cc2)C(=O)C1=O (stereo partly drawn) [Example 74, (3R)-3-(2-(4-ethyl-2,3-dioxopiperazine-1-carboxamido)-2-(4-(2-hydroxyethoxy)phenyl)acetamido)-2-hydroxy-3,4-dihydro-2H-benzo[e][1,2]oxaborinine-8-carboxylic acid] showed an EC50 [1] of 30 to 500 µM, an MIC [3] of 128 to 256 mg/L (≈ 225 to 450 µM) and an EC50 [2] of over 100 µM.
Molecule CCN1CCN(C(=O)NC(C(=O)N[C@H]2Cc3cccc(C(=O)O)c3OB2O)C2CCS(=O)(=O)C2)C(=O)C1=O (stereo partly drawn) [Example 123, (3R)-3-(2-(1,1-dioxidotetrahydrothiophen-3-yl)-2-(4-ethyl-2,3-dioxopiperazine-1-carboxamido)acetamido)-2-hydroxy-3,4-dihydro-2H-benzo[e][1,2]oxaborinine-8-carboxylic acid] has an EC50 [1, 4] of over 500 µM and an EC50 [2] of over 100 µM.
With CS(=O)(=O)c1ccc(C(NC(=O)N2CCN(CCF)C(=O)C2=O)C(=O)N[C@H]2Cc3cccc(C(=O)O)c3OB2O)cc1 (stereo partly drawn) [Example 119, (3R)-3-(2-(4-(2-fluoroethyl)-2,3-dioxopiperazine-1-carboxamido)-2-(4-(methylsulfonyl)phenyl)acetamido)-2-hydroxy-3,4-dihydro-2H-benzo[e][1,2]oxaborinine-8-carboxylic acid] the EC50 [1] was 30 to 500 µM, the MIC [3] was 32 to 64 mg/L (≈ 52.9 to 106 µM) and the EC50 [2] was over 100 µM.
Molecule CCN1CCN(C(=O)N[C@@H](C(=O)N[C@H]2Cc3cccc(C(=O)O)c3OB2O)C2CCN(C(=N)N)CC2)C(=O)C1=O [Example 91, (R)-3-((R)-2-(1-carbamimidoylpiperidin-4-yl)-2-(4-ethyl-2,3-dioxopiperazine-1-carboxamido)acetamido)-2-hydroxy-3,4-dihydro-2H-benzo[e][1,2]oxaborinine-8-carboxylic acid] has an EC50 [1] of over 500 µM, an MIC [3] of 128 to 256 mg/L (≈ 230 to 459 µM) and an EC50 [2] of under 10 µM.
Work on CCN1CCN(C(=O)NC(C(=O)N[C@H]2Cc3cccc(C(=O)O)c3OB2O)c2ccccn2)C(=O)C1=O (stereo partly drawn) [Example 56, (3R)-3-(2-(4-ethyl-2,3-dioxopiperazine-1-carboxamido)-2-(pyridin-2-yl)acetamido)-2-hydroxy-3,4-dihydro-2H-benzo[e][1,2]oxaborinine-8-carboxylic acid] yielded an EC50 [2] of over 100 µM.
CCN1CCN(C(=O)NC(C(=O)N[C@H]2Cc3cccc(C(=O)O)c3OB2O)C2CCCC2)C(=O)C1=O (stereo partly drawn) [Example 116, (3R)-3-(2-cyclopentyl-2-(4-ethyl-2,3-dioxopiperazine-1-carboxamido)acetamido)-2-hydroxy-3,4-dihydro-2H-benzo[e][1,2]oxaborinine-8-carboxylic acid] showed an EC50 [1, 4] of under 30 µM, an MIC [3] of 128 to 256 mg/L (≈ 256 to 512 µM) and an EC50 [2] of 10 to 100 µM.
CCN1CCN(C(=O)NC(C(=O)N[C@H]2Cc3cccc(C(=O)[O-])c3OB2O)c2ccc[n+](C)c2)C(=O)C1=O (stereo partly drawn) [Example 106, (3R)-3-(2-(4-ethyl-2,3-dioxopiperazine-1-carboxamido)-2-(1-methylpyridin-1-ium-3-yl)acetamido)-2-hydroxy-3,4-dihydro-2H-benzo[e][1,2]oxaborinine-8-carboxylate] showed an EC50 [1, 4] of over 500 µM, an MIC [3] of 32 to 64 mg/L (≈ 61.1 to 122 µM) and an EC50 [2] of under 10 µM.
For CCN1CCN(C(=O)N[C@H](C(=O)N[C@H]2Cc3cccc(C(=O)O)c3OB2O)C2CCN(C(=N)N)CC2)C(=O)C1=O [Example 92, (R)-3-((S)-2-(1-carbamimidoylpiperidin-4-yl)-2-(4-ethyl-2,3-dioxopiperazine-1-carboxamido)acetamido)-2-hydroxy-3,4-dihydro-2H-benzo[e][1,2]oxaborinine-8-carboxylic acid], the EC50 [1] was over 500 µM, the MIC [3] was 128 to 256 mg/L (≈ 230 to 459 µM) and the EC50 [2] was under 10 µM.
CCN1CCN(C(=O)NC(C(=O)N[C@H]2Cc3cccc(C(=O)O)c3OB2O)c2ccc(C)cn2)C(=O)C1=O (stereo partly drawn) [Example 127, (3R)-3-(2-(4-ethyl-2,3-dioxopiperazine-1-carboxamido)-2-(5-methylpyridin-2-yl)acetamido)-2-hydroxy-3,4-dihydro-2H-benzo[e][1,2]oxaborinine-8-carboxylic acid] was tested, and the EC50 [1, 4] was over 500 µM and the EC50 [2] was over 100 µM.
Work on CCN1CCN(C(=O)NC(C(=O)N[C@H]2Cc3cccc(C(=O)O)c3OB2O)C(O)c2ccc(O)c(O)c2Cl)C(=O)C1=O (stereo partly drawn) [Example 47, (3R)-3-(3-(2-chloro-3,4-dihydroxyphenyl)-2-(4-ethyl-2,3-dioxopiperazine-1-carboxamido)-3-hydroxypropanamido)-2-hydroxy-3,4-dihydro-2H-benzo[e][1,2]oxaborinine-8-carboxylic acid] yielded an EC50 [1, 4] of over 500 µM and an EC50 [2] of 10 to 100 µM.
CCN1CCN(C(=O)NC(C(=O)N[C@H]2Cc3cccc(C(=O)O)c3OB2O)C(O)c2cccc(O)c2O)C(=O)C1=O (stereo partly drawn) [Example 48, (3R)-3-(3-(2,3-dihydroxyphenyl)-2-(4-ethyl-2,3-dioxopiperazine-1-carboxamido)-3-hydroxypropanamido)-2-hydroxy-3,4-dihydro-2H-benzo[e][1,2]oxaborinine-8-carboxylic acid] showed an EC50 [1, 4] of over 500 µM and an EC50 [2] of under 10 µM.
Work on CCN1CCN(C(=O)NC(CC(=O)N[C@H]2Cc3cccc(C(=O)O)c3OB2O)c2cc(O)c(O)c(Cl)c2)C(=O)C1=O (stereo partly drawn) [Example 43, (3R)-3-(3-(3-chloro-4,5-dihydroxyphenyl)-3-(4-ethyl-2,3-dioxopiperazine-1-carboxamido)propanamido)-2-hydroxy-3,4-dihydro-2H-benzo[e][1,2]oxaborinine-8-carboxylic acid] yielded an EC50 [1] of 30 to 500 µM and an EC50 [2] of 10 to 100 µM.
For CCN1CCN(C(=O)NC(C(=O)N[C@H]2Cc3cccc(C(=O)O)c3OB2O)C(Cl)CCCO)C(=O)C1=O (stereo partly drawn) [Example 130, (3R)-3-(3-chloro-2-(4-ethyl-2,3-dioxopiperazine-1-carboxamido)-6-hydroxyhexanamido)-2-hydroxy-3,4-dihydro-2H-benzo[e][1,2]oxaborinine-8-carboxylic acid], the EC50 ([2]; read-out: E. coli K12 PBP1b EC50, competition binding with 14C-labeled boronic acid probe) was over 100 µM.
Molecule CCN1CCN(C(=O)NC(C(=O)N[C@H]2Cc3cccc(C(=O)O)c3OB2O)C(Cl)CCCO)C(=O)C1=O (stereo partly drawn) [Example 129, (3R)-3-(3-chloro-2-(4-ethyl-2,3-dioxopiperazine-1-carboxamido)-6-hydroxyhexanamido)-2-hydroxy-3,4-dihydro-2H-benzo[e][1,2]oxaborinine-8-carboxylic acid] has an EC50 [1, 4] of over 500 µM and an EC50 [2] of over 100 µM.
For CCN1CCN(C(=O)NC(C(=O)N[C@H]2Cc3cccc(C(=O)O)c3OB2O)C2CN(S(N)(=O)=O)C2)C(=O)C1=O (stereo partly drawn) [Example 78, (3R)-3-(2-(4-ethyl-2,3-dioxopiperazine-1-carboxamido)-2-(1-sulfamoylazetidin-3-yl)acetamido)-2-hydroxy-3,4-dihydro-2H-benzo[e][1,2]oxaborinine-8-carboxylic acid], the MIC [3] was 128 to 256 mg/L (≈ 226 to 452 µM) and the EC50 [2] was over 100 µM.
